This passage reports IC50 results from ChEMBL document CHEMBL4028801, “A multifactorial approach to hepatobiliary transporter assessment enables improved therapeutic compound development” (Toxicol Sci, 2013).

Structures can show the parent of a compound that is named as a salt.

For one experiment, the target named is Bile salt export pump (Homo sapiens, UniProt O95342). Put plainly: Inhibition of human BSEP overexpressed in Sf9 cell membrane vesicles assessed as uptake of [3H]-taurocholate in presence of ATP measured after 15 to 20 mins by membrane vesicle transport assay. It is filed as ADME, cell-based.
Experiment [1] deals with ATP-binding cassette sub-family C member 2 (Homo sapiens, UniProt Q92887). Put plainly: Inhibition of human MRP2 overexpressed in Sf9 cell membrane vesicles assessed as uptake of [3H]-estradiol-17beta-D-glucuronide in presence of ATP and GSH measured after 20 mins by membrane vesicle transport assay.
The target of experiment [2] is ATP-binding cassette sub-family C member 3 (Homo sapiens, UniProt O15438). Kind of experiment: Inhibition of human MRP3 overexpressed in Sf9 insect cell membrane vesicles assessed as uptake of [3H]-estradiol-17beta-D-glucuronide in presence of ATP and GSH measured after 10 mins by membrane vesicle transport assay. It is filed as ADME, cell-based.
Experiment [3] deals with T1, ATP-binding cassette sub-family C member 4 (Homo sapiens, UniProt O15439).
T1 sequence (O15439 whole entry): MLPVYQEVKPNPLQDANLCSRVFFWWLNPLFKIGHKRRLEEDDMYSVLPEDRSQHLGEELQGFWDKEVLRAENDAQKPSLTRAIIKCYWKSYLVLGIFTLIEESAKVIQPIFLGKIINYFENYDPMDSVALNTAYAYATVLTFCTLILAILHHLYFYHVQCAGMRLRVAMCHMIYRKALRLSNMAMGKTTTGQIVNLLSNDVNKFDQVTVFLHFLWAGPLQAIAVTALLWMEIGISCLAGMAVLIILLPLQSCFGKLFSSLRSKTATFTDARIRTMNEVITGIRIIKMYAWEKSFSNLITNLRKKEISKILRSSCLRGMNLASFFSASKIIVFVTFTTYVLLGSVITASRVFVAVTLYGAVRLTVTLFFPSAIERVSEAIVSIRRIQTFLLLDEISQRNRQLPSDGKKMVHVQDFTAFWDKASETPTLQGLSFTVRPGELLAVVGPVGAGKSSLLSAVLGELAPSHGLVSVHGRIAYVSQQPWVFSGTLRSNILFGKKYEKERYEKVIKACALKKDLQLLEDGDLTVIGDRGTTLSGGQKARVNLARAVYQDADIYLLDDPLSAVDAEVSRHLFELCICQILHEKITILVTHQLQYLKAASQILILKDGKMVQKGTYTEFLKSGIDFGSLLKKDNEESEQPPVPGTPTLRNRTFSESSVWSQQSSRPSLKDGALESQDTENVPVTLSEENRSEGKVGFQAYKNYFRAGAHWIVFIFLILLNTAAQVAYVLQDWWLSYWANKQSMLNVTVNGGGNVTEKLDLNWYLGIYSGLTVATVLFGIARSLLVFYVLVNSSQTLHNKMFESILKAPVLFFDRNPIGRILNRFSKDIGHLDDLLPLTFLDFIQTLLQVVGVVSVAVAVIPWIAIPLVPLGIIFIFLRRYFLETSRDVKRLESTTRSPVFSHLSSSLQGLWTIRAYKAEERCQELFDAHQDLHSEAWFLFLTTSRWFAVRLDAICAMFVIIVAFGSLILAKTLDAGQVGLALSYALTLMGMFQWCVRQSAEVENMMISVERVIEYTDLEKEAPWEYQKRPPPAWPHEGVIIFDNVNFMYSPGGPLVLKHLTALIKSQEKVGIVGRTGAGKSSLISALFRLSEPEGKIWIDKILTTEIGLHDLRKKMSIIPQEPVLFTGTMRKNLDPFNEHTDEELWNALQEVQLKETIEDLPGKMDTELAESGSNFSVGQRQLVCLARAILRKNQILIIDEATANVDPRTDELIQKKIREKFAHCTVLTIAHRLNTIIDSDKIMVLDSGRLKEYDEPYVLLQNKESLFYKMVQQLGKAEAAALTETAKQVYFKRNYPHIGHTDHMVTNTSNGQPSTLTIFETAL
Put plainly: Inhibition of human MRP4 overexpressed in Sf9 cell membrane vesicles assessed as uptake of [3H]-estradiol-17beta-D-glucuronide in presence of ATP and GSH measured after 20 mins by membrane vesicle transport assay. The format is ADME, cell-based.

Sequence of Bile salt export pump (O95342 whole entry): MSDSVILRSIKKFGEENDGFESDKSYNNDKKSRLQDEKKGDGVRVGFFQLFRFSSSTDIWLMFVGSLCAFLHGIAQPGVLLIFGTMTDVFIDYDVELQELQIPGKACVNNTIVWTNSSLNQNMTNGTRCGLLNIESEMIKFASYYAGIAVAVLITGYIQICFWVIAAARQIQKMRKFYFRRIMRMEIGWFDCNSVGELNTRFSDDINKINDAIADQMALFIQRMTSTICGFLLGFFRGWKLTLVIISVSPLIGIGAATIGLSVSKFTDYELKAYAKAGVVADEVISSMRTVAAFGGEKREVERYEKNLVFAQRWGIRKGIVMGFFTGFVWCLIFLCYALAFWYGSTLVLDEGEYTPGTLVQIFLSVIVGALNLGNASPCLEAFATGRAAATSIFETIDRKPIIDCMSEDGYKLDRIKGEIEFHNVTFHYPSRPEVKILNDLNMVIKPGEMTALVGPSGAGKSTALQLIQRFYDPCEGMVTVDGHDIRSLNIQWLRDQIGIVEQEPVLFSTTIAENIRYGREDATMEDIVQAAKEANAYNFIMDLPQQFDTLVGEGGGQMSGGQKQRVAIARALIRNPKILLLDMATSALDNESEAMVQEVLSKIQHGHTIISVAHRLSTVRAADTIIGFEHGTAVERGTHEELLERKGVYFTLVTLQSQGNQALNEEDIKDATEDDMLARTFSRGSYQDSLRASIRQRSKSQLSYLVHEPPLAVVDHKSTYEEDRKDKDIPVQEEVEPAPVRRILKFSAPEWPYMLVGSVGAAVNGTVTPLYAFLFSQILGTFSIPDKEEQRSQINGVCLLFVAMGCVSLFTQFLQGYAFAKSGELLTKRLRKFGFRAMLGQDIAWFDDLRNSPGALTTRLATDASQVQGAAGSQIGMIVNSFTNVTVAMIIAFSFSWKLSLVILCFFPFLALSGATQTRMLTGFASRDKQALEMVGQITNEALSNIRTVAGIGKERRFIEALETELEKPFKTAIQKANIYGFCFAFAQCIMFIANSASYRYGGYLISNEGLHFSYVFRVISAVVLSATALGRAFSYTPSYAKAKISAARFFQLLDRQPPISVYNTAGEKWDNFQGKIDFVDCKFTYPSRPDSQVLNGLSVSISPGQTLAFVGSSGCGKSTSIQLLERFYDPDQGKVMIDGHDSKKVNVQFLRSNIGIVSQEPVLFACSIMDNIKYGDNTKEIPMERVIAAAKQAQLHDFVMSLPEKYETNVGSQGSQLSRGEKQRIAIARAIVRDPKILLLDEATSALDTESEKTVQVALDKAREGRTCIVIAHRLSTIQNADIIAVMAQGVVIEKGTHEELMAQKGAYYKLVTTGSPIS
Sequence of ATP-binding cassette sub-family C member 2 (Q92887 whole entry): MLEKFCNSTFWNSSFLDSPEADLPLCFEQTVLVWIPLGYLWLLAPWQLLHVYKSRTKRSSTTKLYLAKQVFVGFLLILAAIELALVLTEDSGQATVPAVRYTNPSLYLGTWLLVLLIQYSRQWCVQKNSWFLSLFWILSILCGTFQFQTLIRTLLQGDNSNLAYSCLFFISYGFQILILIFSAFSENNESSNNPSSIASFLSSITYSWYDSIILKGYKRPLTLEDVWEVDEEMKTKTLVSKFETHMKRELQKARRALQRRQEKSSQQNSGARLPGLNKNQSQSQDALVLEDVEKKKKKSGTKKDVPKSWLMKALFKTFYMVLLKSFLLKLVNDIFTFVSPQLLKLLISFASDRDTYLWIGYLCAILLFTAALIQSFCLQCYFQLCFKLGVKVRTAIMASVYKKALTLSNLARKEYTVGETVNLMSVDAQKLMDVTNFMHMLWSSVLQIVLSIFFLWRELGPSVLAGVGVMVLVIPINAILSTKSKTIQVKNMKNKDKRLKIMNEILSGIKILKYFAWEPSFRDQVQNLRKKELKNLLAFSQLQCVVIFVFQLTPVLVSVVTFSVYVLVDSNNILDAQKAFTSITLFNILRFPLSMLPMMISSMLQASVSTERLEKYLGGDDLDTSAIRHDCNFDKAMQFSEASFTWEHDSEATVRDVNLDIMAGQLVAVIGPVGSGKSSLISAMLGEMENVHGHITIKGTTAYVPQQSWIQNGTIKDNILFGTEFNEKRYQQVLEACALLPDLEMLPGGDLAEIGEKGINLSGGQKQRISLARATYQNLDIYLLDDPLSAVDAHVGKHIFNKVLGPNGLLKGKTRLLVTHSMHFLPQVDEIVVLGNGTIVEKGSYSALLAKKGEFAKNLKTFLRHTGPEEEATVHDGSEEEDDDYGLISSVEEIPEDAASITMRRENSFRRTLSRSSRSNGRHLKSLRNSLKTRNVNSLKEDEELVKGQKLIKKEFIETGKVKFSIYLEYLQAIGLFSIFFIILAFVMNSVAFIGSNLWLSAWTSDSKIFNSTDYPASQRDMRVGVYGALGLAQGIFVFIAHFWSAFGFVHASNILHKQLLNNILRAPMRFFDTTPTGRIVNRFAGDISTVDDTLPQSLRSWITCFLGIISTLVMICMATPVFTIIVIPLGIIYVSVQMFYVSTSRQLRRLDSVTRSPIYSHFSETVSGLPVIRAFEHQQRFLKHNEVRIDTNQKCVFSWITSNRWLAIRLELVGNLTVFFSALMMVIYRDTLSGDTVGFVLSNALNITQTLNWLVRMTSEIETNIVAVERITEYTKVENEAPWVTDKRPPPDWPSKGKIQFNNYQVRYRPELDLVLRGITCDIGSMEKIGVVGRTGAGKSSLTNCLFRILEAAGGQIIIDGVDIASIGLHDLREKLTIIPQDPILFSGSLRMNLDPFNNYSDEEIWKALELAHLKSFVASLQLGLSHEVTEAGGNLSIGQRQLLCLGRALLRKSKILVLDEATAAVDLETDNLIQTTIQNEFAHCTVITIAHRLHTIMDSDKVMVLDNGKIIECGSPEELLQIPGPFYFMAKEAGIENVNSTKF
Sequence of ATP-binding cassette sub-family C member 3 (O15438 whole entry): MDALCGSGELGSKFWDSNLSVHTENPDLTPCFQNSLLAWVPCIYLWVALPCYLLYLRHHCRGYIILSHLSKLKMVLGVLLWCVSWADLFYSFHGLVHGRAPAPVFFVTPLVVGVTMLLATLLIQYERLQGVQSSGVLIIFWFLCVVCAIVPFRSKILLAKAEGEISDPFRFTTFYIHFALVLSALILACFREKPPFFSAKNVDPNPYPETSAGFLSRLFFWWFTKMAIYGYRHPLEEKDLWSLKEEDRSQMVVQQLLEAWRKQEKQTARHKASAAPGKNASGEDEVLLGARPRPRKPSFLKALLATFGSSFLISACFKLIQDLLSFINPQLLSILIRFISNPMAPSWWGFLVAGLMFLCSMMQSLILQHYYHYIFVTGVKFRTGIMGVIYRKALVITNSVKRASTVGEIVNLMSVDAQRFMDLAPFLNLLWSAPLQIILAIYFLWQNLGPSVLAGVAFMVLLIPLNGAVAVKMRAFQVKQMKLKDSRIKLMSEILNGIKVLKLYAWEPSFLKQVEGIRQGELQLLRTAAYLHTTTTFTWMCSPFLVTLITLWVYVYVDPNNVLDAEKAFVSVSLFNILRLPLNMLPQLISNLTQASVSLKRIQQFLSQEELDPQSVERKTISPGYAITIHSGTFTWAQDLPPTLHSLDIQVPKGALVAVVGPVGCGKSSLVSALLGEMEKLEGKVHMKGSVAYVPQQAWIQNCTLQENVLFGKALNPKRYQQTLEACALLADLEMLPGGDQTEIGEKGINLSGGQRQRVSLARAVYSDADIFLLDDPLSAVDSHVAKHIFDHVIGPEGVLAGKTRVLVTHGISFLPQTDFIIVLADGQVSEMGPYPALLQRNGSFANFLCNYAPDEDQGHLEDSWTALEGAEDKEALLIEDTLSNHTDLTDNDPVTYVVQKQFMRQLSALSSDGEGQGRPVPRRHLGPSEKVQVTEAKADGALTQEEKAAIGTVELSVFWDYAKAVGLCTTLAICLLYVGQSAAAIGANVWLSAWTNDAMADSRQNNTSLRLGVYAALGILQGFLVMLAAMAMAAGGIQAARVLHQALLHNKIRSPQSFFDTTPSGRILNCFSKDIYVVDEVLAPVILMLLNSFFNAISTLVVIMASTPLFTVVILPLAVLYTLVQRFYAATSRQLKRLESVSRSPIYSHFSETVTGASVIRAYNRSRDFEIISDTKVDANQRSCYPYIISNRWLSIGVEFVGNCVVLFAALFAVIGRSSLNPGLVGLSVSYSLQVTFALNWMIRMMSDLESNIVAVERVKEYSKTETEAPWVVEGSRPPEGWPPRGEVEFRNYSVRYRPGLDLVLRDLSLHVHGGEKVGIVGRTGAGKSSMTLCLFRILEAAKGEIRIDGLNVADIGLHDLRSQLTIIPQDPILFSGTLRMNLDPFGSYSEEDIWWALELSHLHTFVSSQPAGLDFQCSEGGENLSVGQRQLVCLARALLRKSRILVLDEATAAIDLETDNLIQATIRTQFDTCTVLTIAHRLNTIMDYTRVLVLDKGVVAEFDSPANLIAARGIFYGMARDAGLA

With `C=C(C)[C@H]1Cc2c(ccc3c2O[C@@H]2COc4cc(OC)c(OC)cc4[C@@H]2C3=O)O1` [ROTENONE], the IC50 (in general, the concentration at which inhibition is half-maximal) on Bile salt export pump is 8 µM; in experiment [1], above 133 µM; in experiment [2] it was above 133 µM; in experiment [3], above 133 µM.
Regarding `c1cc(CN2CCCNCCNCCCNCC2)ccc1CN1CCCNCCNCCCNCC1` [PLERIXAFOR], the IC50 (at Bile salt export pump; in experiment [1]; in experiment [2]; in experiment [3]) was above 133 µM each time.
As for `Nc1nc(N)c2nc(-c3ccccc3)c(N)nc2n1`, the IC50 (at Bile salt export pump; in experiment [1]; in experiment [2]; in experiment [3]) was above 133 µM each time.
In the case of `CC(O)(P(=O)(O)O)P(=O)(O)O` [ETIDRONATE DISODIUM], the IC50 (at Bile salt export pump; in experiment [1]; in experiment [2]; in experiment [3]) was above 133 µM throughout.
With `NC(=O)c1ncn([C@@H]2O[C@H](CO)[C@@H](O)[C@H]2O)c1O` [MIZORIBINE], the IC50 (on Bile salt export pump; in experiment [1]; in experiment [2]; in experiment [3]) was above 133 µM in each case.
Take `CC(C)=CCC1C(=O)N(c2ccccc2)N(c2ccccc2)C1=O` [FEPRAZONE]: the IC50 at Bile salt export pump is 73.9 µM; in experiment [1], above 133 µM; in experiment [2], above 133 µM; in experiment [3], above 133 µM.
`Cc1ccc(S(=O)(=O)NC(=O)NN2CC3CCCC3C2)cc1` (stereo not drawn) [GLICLAZIDE]: the IC50 (at Bile salt export pump; in experiment [1]; in experiment [2]; in experiment [3]) was above 133 µM each time.
On to `Cc1nccn1CC1CCc2c(c3ccccc3n2C)C1=O` (stereo not drawn) [ONDANSETRON], for which the half-inhibitory concentration (IC50) (at Bile salt export pump; in experiment [1]; in experiment [2]; in experiment [3]) was above 133 µM each time.
As to `CCN[C@H]1CN(CCCOC)S(=O)(=O)c2sc(S(N)(=O)=O)cc21` [BRINZOLAMIDE], the IC50 (on Bile salt export pump; in experiment [1]; in experiment [2]; in experiment [3]) was above 133 µM each time.
Turning to `Cc1cnc(C(=O)O)c[n+]1[O-]` [ACIPIMOX], the half-inhibitory concentration (IC50) (on Bile salt export pump; in experiment [1]; in experiment [2]; in experiment [3]) was above 133 µM throughout.
For `COc1ccc2cc1Oc1cc3c(cc1OC)CC[N+](C)(C)[C@H]3Cc1ccc(cc1)Oc1c(OC)c(OC)cc3c1[C@@H](C2)[N+](C)(C)CC3` [METOCURINE], the IC50 (on Bile salt export pump; in experiment [1]; in experiment [2]; in experiment [3]) was above 133 µM in each case.
For `CO/N=C(\C(=O)N[C@@H]1C(=O)N2C(C(=O)O)=C(CSc3nc(=O)c(=O)[nH]n3C)CS[C@H]12)c1csc(N)n1`, the IC50 is above 133 µM at Bile salt export pump, above 133 µM in experiment [1], above 133 µM in experiment [2] and 35.6 µM in experiment [3].
Take `C[C@H]1COc2c(N3CCN(C)CC3)c(F)cc3c(=O)c(C(=O)O)cn1c23` [LEVOFLOXACIN]: the half-inhibitory concentration (IC50) (on Bile salt export pump; in experiment [1]; in experiment [2]; in experiment [3]) was above 133 µM throughout.
Turning to `O=C1c2c(O)cccc2Cc2cccc(O)c21` [ANTHRALIN], the IC50 (on Bile salt export pump; in experiment [1]; in experiment [2]; in experiment [3]) was above 133 µM each time.
Take `CNCCC=C1c2ccccc2CCc2ccccc21` [NORTRIPTYLINE]: the IC50 (at Bile salt export pump; in experiment [1]; in experiment [2]; in experiment [3]) was above 133 µM throughout.
Turning to `Cc1onc(-c2ccccc2)c1-c1ccc(S(N)(=O)=O)cc1` [VALDECOXIB], the concentration for half-maximal inhibition (IC50) (on Bile salt export pump; in experiment [1]; in experiment [2]; in experiment [3]) was above 133 µM in each case.
Turning to `CC[C@H]1OC(=O)[C@H](C)[C@@H](O[C@H]2C[C@@](C)(OC)[C@@H](O)[C@H](C)O2)[C@H](C)[C@@H](O[C@@H]2O[C@H](C)C[C@H](N(C)C)[C@H]2O)[C@](C)(O)C[C@@H](C)CN(C)[C@H](C)[C@@H](O)[C@]1(C)O` [AZITHROMYCIN], the IC50 (at Bile salt export pump; in experiment [1]; in experiment [2]; in experiment [3]) was above 133 µM each time.
For `C[C@H]1c2cccc(O)c2C(=O)C2=C(O)[C@]3(O)C(=O)C(C(N)=O)=C(O)[C@@H](N(C)C)[C@@H]3[C@@H](O)[C@@H]21` [DOXYCYCLINE HYDROCHLORIDE], the IC50 (on Bile salt export pump; in experiment [1]; in experiment [2]; in experiment [3]) was above 133 µM each time.
As for `Clc1ccc(COC(Cn2ccnc2)c2ccc(Cl)cc2Cl)c(Cl)c1` (stereo not drawn) [MICONAZOLE NITRATE], the IC50 at Bile salt export pump was 114 µM; in experiment [1], above 133 µM; in experiment [2], above 133 µM; in experiment [3], above 133 µM.
For `O=P(O)(O)C(O)(Cn1ccnc1)P(=O)(O)O` [ZOLEDRONIC ACID], the IC50 (at Bile salt export pump; in experiment [1]; in experiment [2]; in experiment [3]) was above 133 µM in each case.
As to `C=C1CC[C@H](O)C/C1=C/C=C1\CCC[C@]2(C)[C@@H]([C@H](C)/C=C/[C@H](C)C(C)C)CC[C@@H]12` [ERGOCALCIFEROL], the 50% inhibitory concentration (IC50) is 75.8 µM at Bile salt export pump, above 133 µM in experiment [1], above 133 µM in experiment [2] and above 133 µM in experiment [3].
Regarding `O=C(c1ccc(F)cc1)C1CCN(CCn2c(=O)[nH]c3ccccc3c2=O)CC1` [KETANSERIN], the half-inhibitory concentration (IC50) (at Bile salt export pump; in experiment [1]; in experiment [2]; in experiment [3]) was above 133 µM in each case.
As to `CC[C@H]1OC(=O)[C@H](C)[C@@H](O[C@H]2C[C@@](C)(OC)[C@@H](O)[C@H](C)O2)[C@H](C)[C@@H](O[C@@H]2O[C@H](C)C[C@H](N(C)C)[C@H]2O)[C@](C)(O)C[C@@H](C)/C(=N\OCOCCOC)[C@H](C)[C@@H](O)[C@]1(C)O` [ROXITHROMYCIN], the IC50 (at Bile salt export pump; in experiment [1]; in experiment [2]; in experiment [3]) was above 133 µM each time.
Take `COc1nc(N)nc2c1ncn2[C@@H]1O[C@H](CO)[C@@H](O)[C@@H]1O` [NELARABINE]: the IC50 (on Bile salt export pump; in experiment [1]; in experiment [2]; in experiment [3]) was above 133 µM in each case.
For the molecule `CC[C@]1(O)C[C@H]2CN(CCc3c([nH]c4ccccc34)[C@@](C(=O)OC)(c3cc4c(cc3OC)N(C=O)[C@H]3[C@@](O)(C(=O)OC)[C@H](OC(C)=O)[C@]5(CC)C=CCN6CC[C@]43[C@@H]65)C2)C1` [VINCRISTINE SULFATE], the 50% inhibitory concentration (IC50) (at Bile salt export pump; in experiment [1]; in experiment [2]; in experiment [3]) was above 133 µM each time.
Take `COc1ccc(C(CN(C)C)C2(O)CCCCC2)cc1` (stereo not drawn) [VENLAFAXINE]: the 50% inhibitory concentration (IC50) (on Bile salt export pump; in experiment [1]; in experiment [2]; in experiment [3]) was above 133 µM each time.
`COc1c(N2C[C@@H]3CCCN[C@@H]3C2)c(F)cc2c(=O)c(C(=O)O)cn(C3CC3)c12` [MOXIFLOXACIN HYDROCHLORIDE]: the IC50 (on Bile salt export pump; in experiment [1]; in experiment [2]; in experiment [3]) was above 133 µM throughout.
